In the experiment the target is Thymidine kinase (Herpes simplex virus 1). Briefly: Binding affinity was determined against Herpes simplex virus (HSV) -1 thymidine kinase in vero cell monolayer culture.

What is called Ki is a dissociation constant, usually derived from enzyme kinetics or from competition with a known ligand. Read a high Ki as a looser hold on the target. As to `Nc1nc2c(ncn2CC=C(CO)CO)c(=O)[nH]1`, the affinity corresponds to a Ki of 25 µM.

These data come from BindingDB's records for doi:10.1021/jm00388a036 (1987).
